# Marks after values point to notes of the source that are not given here.
# Key:
# Format in all cases: in vivo, mouse
# DIO mice (C57BL/6) [1] = assay: Acute treatment in DIO mice (PCSK9, FGF-21, cholesterol)
# Procedure: In order to investigate metabolic pathways involved with the treatment of compounds of the present invention independent of weight loss, compounds are tested in DIO mice (C57BL/6) acutely. The mice used are three to four months old on a high fat diet for at least 4 weeks. Animals are individually housed in a temperature-controlled (24° C.) facility with a 12 hour light/dark cycle (lights on 6:00), and free access to food and water. Vehicle or testing compounds were administered to mice by subcutaneous injection at 16:00 the day before the study day. Animals were sacrificed 16 hours later to collect blood via cardia puncture. Statistics are analyzed using ANOVA with Dunnett's comparison for JMP-6. Significance is denoted at p≤0.05 vs vehicle.
# Food intake was decreased to a similar level in all treatment groups, which may indicate that changes in cholesterol, PCSK9 and FGF-21 are food-intake independent.
# [2] = tested on: STZ-treated DIO mice (C57BL/6); assay: OGTT in Streptozotocin (STZ)-treated DIO mice; conditions: male STZ mice, OGTT (2 g/kg) 16 hours post injection
# Procedure: STZ-treated mouse model is a model of early diabetes. Five to six months old male DIO mice (C57BL/6) from Taconic Biosciences are used in this study. Animals are individually housed in a temperature-controlled (24° C.) facility with a 12 hour light/dark cycle (lights on 6:00), and free access to food and water. After two weeks acclimation to the facility, mice are injected intraperitoneally with 50 mg/kg of STZ on Tuesday and Friday. Two weeks post the injection, animals with glucose levels between 180-300 mg/dL at 09:00 are selected for the OGTT study. The day before the study, animals are randomized into groups based on body weight and their glucose levels. Animals are treated with vehicle or testing articles by subcutaneous injection just prior to food removal overnight (16:00). The following morning at 08:00, 16 hours post compound injection, blood samples are taken to measure time zero glucose. Animals are given an oral dose of glucose of 2 g/kg. Glucose is measured 15, 30, 60, and 120 minutes post the oral glucose challenge. Statistics are analyzed using ANOVA with Dunnett's comparison by JMP 6. Significance is denoted at p≤0.05 vs. vehicle.
# DIO mice (C57BL/6) [3] = assay: Chronic treatment in DIO mice (body weight, fat, food intake)
# Procedure: The effects on food intake and body weight/fat are evaluated in DIO mice. Five to six months old DIO mice (C57BL/6) from Taconic Biosciences are used in this study. Animals are individually housed in a temperature-controlled (24° C.) facility with a 12 hour light/dark cycle (lights on 6:00), and free access to food and water. The mice are acclimated to the facility for two weeks. The day before the study start, fat mass is measured by nuclear magnetic resonance (NMR) using an Echo Medical System (Houston, Tex.) instrument. The mice are randomized to treatment groups (N=7/group) based on body weight and fat mass so each group had similar starting mean body weight and fat mass. […] SC injections are made on Day 1, 4, 7, 10, and 13. Body weight and food intake are measured right before each injection throughout the study. Percent changes in body weight are calculated as follows: […]
# At the completion of the study, total fat mass is measured again by NMR. Statistics are analyzed using ANOVA with Dunnett's comparison by JMP 6. Significance is denoted at p≤0.05 vs. vehicle.
# DIO mice (C57BL/6) [4] = assay: Oral Glucose Tolerance Test (OGTT) in DIO mice; conditions: male DIO mice, OGTT (2 g/kg) 16 hours post injection
# Procedure: Diet-induced obese (DIO) mouse model is a model of insulin resistance. Five to six months old male DIO mice (C57BL/6) from Taconic Biosciences are used in this study. Animals are individually housed in a temperature-controlled (24° C.) facility with a 12 hour light/dark cycle (lights on 06:00), and free access to food and water. The acclimation period to the facility is two weeks. The day before the study, animals are randomized into groups based on their body weight. That same afternoon, animals are fasted in clean cages and dosed with vehicle (40 mM Tris-HCl, pH 8.0) or test articles by subcutaneous injection. The following morning, 16 hours post the peptide injection, fasting body weights are obtained to calculate glucose doses. Blood samples are taken to measure time zero glucose. Animals are then given an oral gavage of glucose (2 g/kg). Two glucose readings via glucometers were obtained at 15, 30, 60 and 120 minutes post oral glucose. The average of two glucose readings is reported at each time point and an area under the curve is calculated. Statistics were analyzed using ANOVA with Dunnett's comparison by JMP 6; significance is denoted at p≤0.05 vs. vehicle.
# DIO mice (C57BL/6) [5] = assay: Effects on energy expenditure in DIO mice (indirect calorimetry); conditions: for Cumulative Heat (Kcal/kg lean mass/3 day): test article 15 nmol/kg, semaglutide 60 nmol/kg sc every three days
# Procedure: Seven to eight months old male DIO mice (C57BL/6) weighing 45-50 g are used in this study to assess the effect of compounds of the present invention on energy metabolism. Animals are individually housed in a temperature-controlled (24° C.) facility with a 12 hour light/dark cycle (lights on 22:00), and free access to food (TD95217)(Teklad) and water. After 2 weeks acclimation to the facility, mice are randomized to treatment groups (N=6/group) based on body weight so each group has similar starting mean body weight. Animals are placed in a PhenoMaster/LabMaster calorimeter (TSE Systems, Chesterfield, Mo.) for 8 days of acclimation.
# Heat and […] (RER) are measured by indirect calorimetry as described using an open-circuit calorimetry system. RER is the ratio of the volume of CO2 produced (VCO2) to the volume of O2 consumed (VO2). Heat is calculated with lean body weight considered. The energy expenditure is kcal/kg/3 day and expressed as mean±SEM of 6 mice per group. Statistical significance is assessed by two-way ANOVA followed by Tukey's multiple comparison test.
# [6] = 30 nmol/kg sc, 16 hours post dose
# [7] = 30 nmol/kg sc every three days for 15 days
# [8] = 60 nmol/kg sc every three days for 15 days
substance,measurement,setting,value
semaglutide [reference compound],Cholesterol (% of vehicle),DIO mice (C57BL/6) [1]; [6],117.6 % of vehicle
same,FGF-21 (% of vehicle),DIO mice (C57BL/6) [1]; [6],75 % of vehicle
same,PCSK9 (% of vehicle),DIO mice (C57BL/6) [1]; [6],115.3 % of vehicle
same,"serum cholesterol, PCSK9 and FGF-21 levels",DIO mice (C57BL/6) [1]; acute treatment,does not decrease serum cholesterol and PCSK9 levels and increase FGF-21 levels
same,Glucose AUC (% of vehicle),[2]; 1 nmol/kg sc,72* % of vehicle
same,Glucose AUC (% of vehicle),[2]; 3 nmol/kg sc,53* % of vehicle
same,Glucose AUC (% of vehicle),[2]; 10 nmol/kg sc,35* % of vehicle
same,Body Fat (% change vs. vehicle from Day 1),DIO mice (C57BL/6) [3]; [7],−20* %
same,Body Weight (% change vs. vehicle from Day 1),DIO mice (C57BL/6) [3]; [7],−8%
same,Body Fat (% change vs. vehicle from Day 1),DIO mice (C57BL/6) [3]; [8],−29* %
same,Body Weight (% change vs. vehicle from Day 1),DIO mice (C57BL/6) [3]; [8],−12* %
same,Glucose AUC (% of vehicle),DIO mice (C57BL/6) [4]; 1 nmol/kg sc,59* % of vehicle
same,Glucose AUC (% of vehicle),DIO mice (C57BL/6) [4]; 3 nmol/kg sc,51* % of vehicle
same,Glucose AUC (% of vehicle),DIO mice (C57BL/6) [4]; 10 nmol/kg sc,38* % of vehicle
same,metabolic rate,"DIO mice (C57BL/6) [5]; DIO mice, chronic treatment",no effect on metabolic rate
same,Cumulative Heat (Kcal/kg lean mass/3 day),DIO mice (C57BL/6) [5]; Day 1 to Day 4,1973 ± 51 Kcal/kg lean mass/3 day
same,Cumulative Heat (Kcal/kg lean mass/3 day),DIO mice (C57BL/6) [5]; Day 4 to Day 7,2018 ± 54 Kcal/kg lean mass/3 day
same,Cumulative Heat (Kcal/kg lean mass/3 day),DIO mice (C57BL/6) [5]; Day 7 to Day 10,2151 ± 48 Kcal/kg lean mass/3 day
same,Cumulative Heat (Kcal/kg lean mass/3 day),DIO mice (C57BL/6) [5]; Day 10 to Day 13,2138 ± 46 Kcal/kg lean mass/3 day
